From US12600728B2, “Interleukin-17 inhibitors” (priority 2020, dated 2026) come the findings set out here.

For assay [1], the target named is recombinant human IL-17AA (Homo sapiens, UniProt Q16552). In words: IL-6 release from NHDF cells, IL-17AA plus TNF-α stimulation. Format: cell-based. The note with it: 24 hours, IL-6 by ELISA. Here is the method: IL-6 Release from NHDF Cells (Normal Human Dermal Fibroblasts)
NHDF cells isolated from normal adult mesoderm, connective tissues were cultured in fibroblast growth medium containing 2% supplement. […] The cells were allowed to adhere overnight before they were incubated with the compound/cytokine cocktail.
Diluted compounds were pre-incubated with recombinant human IL-17AA or IL-17AF plus human TNF-α for 30 minutes at room temperature on a shaker. […] The cells were incubated with the compound/cytokines cocktail for 24 hours at 37° C. (5% CO2). […] The final DMSO or plasma concentrations were 0.1% or 20%, respectively. All compound incubations were done in duplicate. The supernatants were collected to quantify IL-6 by ELISA according to the manufacturers instructions. The optical density was measured at 450 nm by an EnVision Multilabel Plate Reader (Perkin Elmer). The IL-6 levels produced after TNF-α stimulation were subtracted from the IL-6 produced after IL-17/TNF-α co-stimulation. These IL-17-specific IL-6 concentrations were used for […] value calculation.

The target in assay [2] is biotinylated human IL-17A / AF647-labeled human IL-17RA (Homo sapiens, UniProt Q16552). The assay is described as follows: Human IL-17A×IL-17RA TR-FRET assay. Format: binding. Here is the method: Human IL-17A×IL-17RA TR-FRET Assay
Each compound concentration is tested in duplicate.
The final total assay volume is 10 μL.
Each plate contains test compounds in columns 1-22 and controls in columns 23 and 24. The neutral control (NC) contains all the assay components, but DMSO instead of test compound. […] The fluorescence values for emission at 615 nm and 665 nm are loaded to the evaluation software Helios.
From the activity data at each compound concentration, the IC50 values are obtained using the 4-parameter logistic function (“Hill-slope model”) of Helios.
On the technique in general: Time-resolved FRET reads energy transfer from a long-lived donor to a nearby acceptor.

Setting [3] is: NHDF cells, IL-17AA 30 pM + TNF-α 6 pM, read-out: IL17AA + TNF IC50 IL-6.
[4] abbreviates: TR-FRET, 5 nM IL-17A, 30 nM IL-17RA, read-out: IL17AA FRET/ IL17Rawt IC50.
The mark [5] stands for this setting: NHDF cells, IL-17AA 30 pM plus TNF-α 6 pM, read-out: IL17AA + TNF IC50 IL-6.
Setting [6] is: TR-FRET, biotinylated human IL-17A 5 nM, AF647-labeled human IL-17RA 30 nM, read-out: IL17AA FRET/ IL17Rawt IC50.

Read-outs that look alike come from different tables or passages of the source.

Chain of recombinant human IL-17AA (Q16552 24-155): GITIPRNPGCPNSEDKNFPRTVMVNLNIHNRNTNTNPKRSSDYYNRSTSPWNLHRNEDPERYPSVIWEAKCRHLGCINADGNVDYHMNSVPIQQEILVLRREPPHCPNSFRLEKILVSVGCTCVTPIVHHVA
Chain of biotinylated human IL-17A / AF647-labeled human IL-17RA (Q16552 24-155): as above

As to `Cc1cc[n+]([O-])c(C)c1-c1ccc(NC(=O)[C@H](Cc2ccccc2Cl)NC(=O)c2ccc3n2CCNC3)cc1` [Example 190, (S)-3-(4-(3-(2-chlorophenyl)-2-(1,2,3,4-tetrahydropyrrolo[1,2-a]pyrazine-6-carboxamido)propanamido)phenyl)-2,4-dimethylpyridine 1-oxide], the results for the IC50 in assay [1] (setting [3]) and in assay [2] (setting [4]) were 278 nM and 123 nM, respectively.
In the case of `Cc1cc[n+]([O-])c(C)c1-c1ccc(NC(=O)C(NC(=O)c2ccnn2C)C2CCC(C)CC2)cc1F` [Example 84, 3-(2-fluoro-4-((S)-2-(1-methyl-1H-pyrazole-5-carboxamido)-2-((1r,4S)-4-methylcyclohexyl)acetamido)phenyl)-2,4-dimethylpyridine 1-oxide], the IC50 in assay [1] (IL17AA + TNF IC50 IL-6, NHDF cells, IL-17AA 30 pM plus TNF-α 6 pM) worked out at 8 nM; in assay [2] (IL17AA FRET/ IL17Rawt IC50, TR-FRET, biotinylated human IL-17A 5 nM, AF647-labeled human IL-17RA 30 nM), 14 nM.
As for `Cc1nocc1C(=O)N[C@H](C(=O)Nc1ccc(-c2cc(Cl)c[n+]([O-])c2C)c(F)c1)C1CCC(F)(F)CC1` [Example 172, (S)-5-chloro-3-(4-(2-(4,4-difluorocyclohexyl)-2-(3-methylisoxazole-4-carboxamido)acetamido)-2-fluorophenyl)-2-methylpyridine 1-oxide], the values for the IC50 in assay [1] (setting [3]) and in assay [2] (setting [4]) were 531 nM and 596 nM, respectively.
For the compound `Cc1nocc1C(=O)NC(C(=O)Nc1ccc(-c2c(Cl)cc[n+]([O-])c2C)cc1)C1CCC(C(F)(F)F)CC1` [Example 19, 4-chloro-2-methyl-3-(4-((S)-2-(3-methylisoxazole-4-carboxamido)-2-((1r,4S)-4-(trifluoromethyl)cyclohexyl)acetamido)phenyl)pyridine 1-oxide], the IC50 in assay [1] (setting [5]) was determined as 20 nM; in assay [2] (setting [6]) it was 26 nM.
On to `Cc1nocc1C(=O)NC(C(=O)Nc1ccc(-c2c(Cl)cc[n+]([O-])c2C)cc1)C1CC2CC2C1` (single isomer, unassigned) [Example 146], for which the IC50 in assay [1] (setting [3]) turned out to be 57 nM.
In the case of `Cc1nccc(Cl)c1-c1ccc(NC(=O)[C@@H](NC(=O)c2ccnn2C)C2CCCCC2)cc1F` [compound 137, N-((1S)-2-((4-(4-chloro-2-methylpyridin-3-yl)-3-fluorophenyl)amino)-1-cyclohexyl-2-oxoethyl)-1-methyl-1H-pyrazole-5-carboxamide, reference compound], in assay [1] (NHDF cells, IL-17AA 30 pM + TNF-α 6 pM, reference examples (pyridines), read-out: IL 17AA + TNF IC50 IL-6), the IC50 is 578 nM.
As to `Cc1c(-c2ccc(NC(=O)C(NC(=O)c3ccc4n3CCNC4)[C@@H]3C[C@@H]4[C@H](C3)C4(F)F)cc2)c(Cl)cc[n+]1[O-]` (stereo partly drawn) [Example 211, 4-chloro-3-(4-(2-((1R,3s,5S)-6,6-difluorobicyclo[3.1.0]hexan-3-yl)-2-(1,2,3,4-tetrahydropyrrolo[1,2-a]pyrazine-6-carboxamido)acetamido)phenyl)-2-methylpyridine 1-oxide], the IC50 in assay [2] (setting [4]) amounted to 499 nM.
On the same count and under the same terms, the figure for `Cc1cc[n+]([O-])c(C)c1-c1ccc(NC(=O)[C@@H](NC(=O)c2ccc3n2CCN(C)C3)[C@H]2CCCC(F)(F)C2)cc1` [Example 152, 3-(4-((S)-2-((S)-3,3-difluorocyclohexyl)-2-(2-methyl-1,2,3,4-tetrahydropyrrolo[1,2-a]pyrazine-6-carboxamido)acetamido)phenyl)-2,4-dimethylpyridine 1-oxide] is 391 nM; for `COCc1nocc1C(=O)N[C@H](C(=O)Nc1ccc(-c2cc(Cl)c[n+]([O-])c2C)cc1)C1CCC(F)(F)CC1` [Example 176, (S)-5-chloro-3-(4-(2-(4,4-difluorocyclohexyl)-2-(3-(methoxymethyl)isoxazole-4-carboxamido)acetamido)phenyl)-2-methylpyridine 1-oxide] it is 1610 nM.
Turning to `CCc1nocc1C(=O)N[C@H](C(=O)Nc1ccc(-c2c(Cl)ccnc2C)cc1)[C@H]1CCCC(F)(F)C1` [compound 140, N-((S)-2-((4-(4-chloro-2-methylpyridin-3-yl)phenyl)amino)-1-((S)-3,3-difluorocyclohexyl)-2-oxoethyl)-3-ethylisoxazole-4-carboxamide, reference compound], in assay [2] (TR-FRET, 5 nM IL-17A, 30 nM IL-17RA, reference examples (pyridines), read-out: IL17AA FRET/ IL17RAwt IC50), the IC50 was 1220 nM.
For the compound `Cc1nc(C(F)(F)F)c(C(=O)N[C@H](C(=O)Nc2ccc(-c3c(C(F)(F)F)cc[n+]([O-])c3C)cc2)C2CCCC2)s1` [Example 73, (S)-3-(4-(2-cyclopentyl-2-(2-methyl-4-(trifluoromethyl)thiazole-5-carboxamido)acetamido)phenyl)-2-methyl-4-(trifluoromethyl)pyridine 1-oxide], the IC50 in assay [2] (setting [6]) worked out at 1410 nM.
For the compound `Cc1cc[n+]([O-])c(C)c1-c1ccc(NC(=O)C(NC(=O)c2ccnn2C)C2(C)CCCCC2)cc1` (stereo not shown) [Example 43, 2,4-dimethyl-3-(4-(2-(1-methyl-1H-pyrazole-5-carboxamido)-2-(1-methylcyclohexyl)acetamido)phenyl)pyridine 1-oxide], the IC50 in assay [2] (setting [6]) is 78900 nM.
Consider `Cc1c(-c2ccc(NC(=O)[C@@H](NC(=O)c3ccnn3C)[C@H]3CCCC(F)(F)C3)cc2F)c(Cl)cc[n+]1[O-]` [Example 110, 4-chloro-3-(4-((S)-2-((S)-3,3-difluorocyclohexyl)-2-(1-methyl-1H-pyrazole-5-carboxamido)acetamido)-2-fluorophenyl)-2-methylpyridine 1-oxide], for which, in assay [1] (setting [5]), the IC50 is 8 nM.
On to `CC(=O)N1CCn2c(ccc2C(=O)N[C@H](C(=O)Nc2ccc(-c3c(C(F)(F)F)cc[n+]([O-])c3C)cc2)C2CCC(F)(F)CC2)C1` [Example 210, (S)-3-(4-(2-(2-acetyl-1,2,3,4-tetrahydropyrrolo[1,2-a]pyrazine-6-carboxamido)-2-(4,4-difluorocyclohexyl)acetamido)phenyl)-2-methyl-4-(trifluoromethyl)pyridine 1-oxide], for which the IC50 in assay [2] (setting [4]) was 478 nM.
Take `Cc1cc[n+]([O-])c(C)c1-c1ccc(NC(=O)C(NC(=O)c2ccc3n2CCN(C)C3)C2CC3CC3C2)cc1` (single isomer, unassigned) [Example 150]: in assay [2] (setting [4]), the IC50 was 464 nM.
For the compound `Cc1c(-c2ccc(NC(=O)[C@@H](NC(=O)c3ccnn3C)C3CCCCC3)cc2F)ccc[n+]1[O-]` [Example 83, (S)-3-(4-(2-cyclohexyl-2-(1-methyl-1H-pyrazole-5-carboxamido)acetamido)-2-fluorophenyl)-2-methylpyridine 1-oxide], in assay [1] (setting [5]), the IC50 was found to be 115 nM.
`CCn1nccc1C(=O)NC(C(=O)Nc1ccc(-c2c(C(F)(F)F)cc[n+]([O-])c2C)cc1)C1CC2CC2C1` (single isomer, unassigned) [Example 154] came in with an IC50 in assay [2] (IL17AA FRET/ IL17Rawt IC50, TR-FRET, 5 nM IL-17A, 30 nM IL-17RA) of 6300 nM.
Regarding `CCn1nccc1C(=O)N[C@@H](C(=O)Nc1ccc(-c2c(Cl)cc[n+]([O-])c2C)cc1)C1CCC(F)(F)CC1` (single isomer, unassigned) [Example 13b], the IC50 in assay [2] (setting [6]) turned out to be 30400 nM.
With `Cc1c(-c2ccc(NC(=O)C(NC(=O)c3ccc4n3CCN(C)C4)[C@@H]3C[C@@H]4[C@H](C3)C4(F)F)cc2)c(Cl)cc[n+]1[O-]` (stereo partly drawn) [Example 165, 4-chloro-3-(4-(2-((1R,3s,5S)-6,6-difluorobicyclo[3.1.0]hexan-3-yl)-2-(2-methyl-1,2,3,4-tetrahydropyrrolo[1,2-a]pyrazine-6-carboxamido)acetamido)phenyl)-2-methylpyridine 1-oxide], the IC50 in assay [2] (setting [4]) was determined as 301 nM.
Consider `CCn1nccc1C(=O)N[C@H](C(=O)Nc1ccc(-c2c(C(F)(F)F)cc[n+]([O-])c2C)cc1)C1CC2CC2C1` (stereo partly drawn) [Example 223, 3-(4-((2S)-2-(bicyclo[3.1.0]hexan-3-yl)-2-(1-ethyl-1H-pyrazole-5-carboxamido)acetamido)phenyl)-2-methyl-4-(trifluoromethyl)pyridine 1-oxide], for which the IC50 in assay [2] (setting [4]) is 9080 nM.
Take `Cc1cc[n+]([O-])c(C)c1-c1ccc(NC(=O)[C@@H](NC(=O)c2ccc3n2CCNC3)[C@H]2CCCC(F)(F)C2)cc1` [Example 208, 3-(4-((S)-2-((S)-3,3-difluorocyclohexyl)-2-(1,2,3,4-tetrahydropyrrolo[1,2-a]pyrazine-6-carboxamido)acetamido)phenyl)-2,4-dimethylpyridine 1-oxide]: the IC50 in assay [2] (setting [4]) was determined as 316 nM.
